The record followed here is BindingDB's records for doi:10.1021/bi9007287 (Max Planck Research, 2009).

In assay [1] the target is Peptidyl-prolyl cis-trans isomerase A (Homo sapiens, UniProt P62937). Briefly: PPIase Assay. The following applies: pH 7.8; 5 °C.
In assay [2] the target is Peptidyl-prolyl cis-trans isomerase B (Human, UniProt P23284). In words: PPIase Assay. The following applies: pH 7.8; 5 °C.
Assay [3] addresses Peptidyl-prolyl cis-trans isomerase C (Mus musculus) (UniProt P30412). Briefly: PPIase activity assay were performed at 283 K in quartz cuvettes with a path length of 1 cm under vigorous stirring with a Hewlett-Packard 8453A UV-vis spectrophotometer in 35 mM HEPES buffer (pH 7.8).
In assay [4] the target is T1, Peptidyl-prolyl cis-trans isomerase-like 1 (Homo sapiens, UniProt Q9Y3C6).
T1 sequence (Q9Y3C6 whole entry): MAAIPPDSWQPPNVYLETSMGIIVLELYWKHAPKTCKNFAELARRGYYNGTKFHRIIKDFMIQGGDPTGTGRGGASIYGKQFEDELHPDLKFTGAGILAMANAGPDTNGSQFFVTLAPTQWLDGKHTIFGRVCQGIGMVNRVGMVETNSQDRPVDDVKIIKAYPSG
In words: PPIase Assay. The following applies: pH 7.8; 5 °C.

Assay [5] concerns the target Peptidyl-prolyl cis-trans isomerase H (Homo sapiens, UniProt O43447). Briefly: PPIase Assay. The following applies: pH 7.8; 5 °C.

Structures are written as SMILES. Some results are limits rather than exact numbers.

Sequence of Peptidyl-prolyl cis-trans isomerase A (P62937 whole entry): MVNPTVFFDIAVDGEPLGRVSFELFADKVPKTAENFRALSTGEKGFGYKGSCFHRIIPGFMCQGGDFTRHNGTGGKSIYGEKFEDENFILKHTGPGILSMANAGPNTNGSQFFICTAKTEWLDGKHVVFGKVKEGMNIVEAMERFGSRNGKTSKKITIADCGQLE
Sequence of Peptidyl-prolyl cis-trans isomerase B (P23284 whole entry): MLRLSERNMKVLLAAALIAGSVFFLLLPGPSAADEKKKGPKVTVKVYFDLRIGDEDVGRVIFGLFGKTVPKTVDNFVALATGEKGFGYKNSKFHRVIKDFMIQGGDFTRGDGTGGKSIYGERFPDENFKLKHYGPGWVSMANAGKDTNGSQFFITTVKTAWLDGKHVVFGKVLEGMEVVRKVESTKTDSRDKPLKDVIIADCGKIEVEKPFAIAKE
Sequence of Peptidyl-prolyl cis-trans isomerase C (Mus musculus) (P30412 whole entry, looked up): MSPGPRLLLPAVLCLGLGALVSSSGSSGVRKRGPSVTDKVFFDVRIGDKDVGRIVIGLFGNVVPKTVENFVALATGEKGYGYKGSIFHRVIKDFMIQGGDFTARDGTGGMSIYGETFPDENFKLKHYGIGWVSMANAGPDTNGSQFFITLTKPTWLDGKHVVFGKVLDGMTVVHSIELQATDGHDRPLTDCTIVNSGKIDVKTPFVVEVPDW
Sequence of Peptidyl-prolyl cis-trans isomerase H (O43447 whole entry): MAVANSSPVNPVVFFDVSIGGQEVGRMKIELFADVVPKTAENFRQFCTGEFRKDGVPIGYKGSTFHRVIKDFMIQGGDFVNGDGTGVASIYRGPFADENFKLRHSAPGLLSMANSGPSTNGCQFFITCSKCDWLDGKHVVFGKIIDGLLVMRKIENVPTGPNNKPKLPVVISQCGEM

A word on the Ki: it is a measure of affinity in units of concentration, obtained from inhibition or displacement. Take `COc1ccc(F)cc1C(=O)C1(C)CCc2ccccc21` (centres undefined) [Aryl 1-indanylketone, 6]: the Ki in assay [1] and in assay [2] was over 100 µM throughout.
For `COc1ccc2c(c1)C1(CC(C)c3ccccc31)C(=O)O2` (centres undefined) [Benzofuranone, 7], the inhibition constant (Ki) was 21 µM in assay [1] and over 100 µM in assay [2].
Taken in the same sequence, the figures for `COc1ccc(C(F)(F)F)cc1C(=O)C1CCc2ccccc21` (centres undefined) [Aryl 1-indanylketone, 5] were 10 µM and over 100 µM.
Taken in the same sequence, the figures for `O=C1Oc2ccccc2C12Cc1ccccc1C2` [Benzofuranone, 8] were over 100 µM and over 100 µM.
Consider `Nc1cc(F)cc(-c2ccc(O)c(C(=O)C3CCc4ccccc43)c2)c1O` (centres undefined) [Aryl 1-indanylketone, 2], for which the Ki in assay [3] was over 100 µM; in assay [1], 0.3 µM; in assay [4], over 100 µM; in assay [2], 12 µM; in assay [5] it was over 100 µM.
In the case of `COc1ccc(-c2ccc(OC(F)(F)F)cc2)cc1C(=O)C1CCc2ccccc21` (centres undefined) [Aryl 1-indanylketone, 4], the Ki was determined as 1.2 µM in assay [1] and 2.1 µM in assay [2].
For `COc1ccc(F)cc1-c1cc(N)c(O)c(C(=O)C2CCc3ccccc32)c1` (centres undefined) [Aryl 1-indanylketone, 3] the same measures were 1.7 µM and 8.6 µM.
For `COc1ccc2c(c1)C(=O)C1(Cc3ccccc3C1)O2` [Benzofuranone, 9] the same measures were over 100 µM and 63 µM.
On to `O=C(c1cc(-c2cc(F)cc([N+](=O)[O-])c2O)cc([N+](=O)[O-])c1O)C1CCc2ccccc21` (centres undefined) [Aryl 1-indanylketone, 1], for which the Ki in assay [3] was over 100 µM; in assay [1], 0.52 µM; in assay [4], 29 µM; in assay [2] it was over 100 µM; in assay [5] it was over 100 µM.
